In article PMC11434960, “Evaluation of [^68Ga]Ga-DOTA-AeK as a Potential Imaging Tool for PET Imaging of Cell Wall Synthesis in Bacterial Infections” (Pharmaceuticals, 2024):
Where two headings read alike, the source gives them in different places. Starred links: 1 amine or outer side, 2 acyl side, 3 side chain; linkers in the order of their positions; H or OH if unused. Non-standard residues stand in square brackets, D forms with d. Residues, ends and D or L forms follow the SMILES beside them. *: point of attachment. DOTA = O=C(O)CN1CCN(CC(=O)O)CCN(CC(=O)*)CCN(CC(=O)O)CC1; d(γGlu) = O=C(O)[C@@H](CCC(=O)[*:2])N[*:1]

Columns and labels:
[1] = type: physicochemical
Description: The compound hydrophobicity was determined using the octanol–water partition coefficient “shake flask method” described by Lambidis et al.. In brief, 100 µL of purified [^68Ga]Ga-DOTA-AeK was added to 400 µL of ultrapure water. The aqueous solution was added to an equal volume of 1-octanol (Sigma-Aldrich, Darmstadt, Germany), and the mixture was mechanically shaken for approximately 3 min at room temperature. The sample was centrifuged at 16,211 g for 5 min using a Digicen 21 R centrifuge (Orto Alresa, Madrid, Spain). The aqueous and organic phases of the sample were separated, and samples from each phase were analyzed using a dose calibrator. The logarithmic partition coefficient, Log P, was calculated using the following formula:Log P = Log [(counts in octanol/counts in water)](1)

[2] = type: in vitro ADME
Description: The plasma protein binding filter assay described by Müller et al. was adopted. Before the experiment, Amicon® Ultra-0.5 centrifugal 10 kDa MWCO filter units (Merck, Darmstadt, Germany) were pre-washed with 200 µL of phosphate-buffered saline (PBS) for 20 min at 18,611 g using the Microfuge 16 centrifuge (Beckman Coulter Life Sciences, Brea, CA, USA). Subsequently, 800 µL of plasma was spiked with 200 µL of purified [^68Ga]Ga-DOTA-AeK, vortexed for 3 s, and incubated for 120 min at 37 °C. For radioanalysis, a 100 µL plasma sample was taken at different time intervals (30, 60, and 120 min), diluted (1:1) with PBS, aliquoted into filter units, and centrifuged at 14,800 rpm for 20 min. A similar procedure was carried out in PBS (140 mM NaCl, 10 mM phosphate buffer, and 3 mM KCl, pH 7.4) as a control. After centrifugation, each filter unit was washed by adding 100 µL of PBS (140 mM NaCl, 10 mM phosphate buffer, and 3 mM KCl, at pH 7.4, and centrifuged as described above. The counts of the filtrate fraction (representing unbound compound) and on the filter (protein-bound compound) were measured using a Capintec Captus 4000E well counter (Florham Park, NJ, USA). The percentage of the protein-bound radiotracer was calculated using the following equation:% Protein bound = [counts in filter ÷ total counts (filtrate fraction+ filter)] × 100(2)

E. coli [3] = experiment: Bacterial cell uptake of radiotracer in live and heat-killed cultures; type: cell-based, Escherichia coli; conditions: 37 °C
Description: (§1) Overnight bacterial cell cultures of E. coli or S. aureus were grown in Tryptic Soy Broth (TSB) medium at 37 °C. The […] McFarland standard was prepared using DEN-18 McFarland Densitometer (Biosan, Riga, Latvia). For control studies, the same amount of bacterial culture was heat-killed via 30 min incubation at 90 °C. The culture viability was confirmed using agar plating with overnight incubation. All tests were initiated by adding 4.1 ± 1.23 MBq of [^68Ga]Ga-DOTA-AeK product solution (4.86 ± 1.45 GBq/µmol) to 1.0 mL of the bacterial suspension (1.8 × 10^8 cells/mL), and mixtures were maintained while shaking at 37 °C. At specific time intervals (10, 60, and 120 min), samples of the suspension were centrifuged at 16,211 g for 10 min (Digicen 21R, United Scientific, Goodwood, South Africa), and the supernatant was transferred into a plastic tube. The pellet was washed with 3 mL of PBS (140 mM sodium chloride, 10 mM phosphate buffer, and 3 mM potassium chloride, pH 7.4) and centrifuged at 16,211 g for 10 min. […] The radioactivity in the supernatant and pellet fraction were measured using an automatic gamma counter (Hidex AMG, LabLogic, Turku, Finland). The percentile of [^68Ga]Ga-DOTA-AeK cell uptake was calculated as follows:Uptake (%) = [counts in cell pellet ÷ total counts (cell pellet + supernatants)] × 100(3)

S. aureus [4] = experiment: as above; type: cell-based, Staphylococcus aureus; conditions: 37 °C
Description: as §1

[5] = type: in vivo, BALB/c mice; conditions: mouse, in vivo, iv, Ex vivo organ biodistribution
Description: (§2) Six-to-eight-week-old mixed-gender BALB/c mice (20.0 ± 2.1 g) were utilized. Animals were pre-grouped (two mice/cage) into individually ventilated cages (IVC, Tecniplast, Buguggiate, Italy) and kept under standard housing conditions (22 ± 2 °C, 55 ± 10% humidity, 15 ± 5 Pa, and 12 h light/dark cycles) with food and water being provided ad libitum. Each experimental group consisted of 5 animals.
(§3) A thigh muscle mouse model of infection and inflammation was developed for imaging purposes by adopting procedures from a previous study with some modifications. In brief, animals were inoculated intramuscularly (right hind leg) with 1.5 × 10^7 colony forming units (CFU)/mL of S. aureus or E. coli suspended in 100 µL of culture media. To induce sterile inflammation, the same mice received 100 µL of a turpentine oil solution intramuscularly into the left hind leg. Infection was allowed to develop for 3–5 days, which is typical for a model of chronic infections, and a health check, including monitoring of the infection and inflammation sites, was conducted. At 3 and 5 days after the inoculations, all animals underwent whole-body [^68Ga]Ga-DOTA-AeK microPET/CT imaging, and after euthanasia, a complete ex vivo organ tissue biodistribution radioactive assay was performed.
(§4) A total volume of 100 µL of [^68Ga]Ga-DOTA-AeK (7.4 ± 2.0 MBq, 5% EtOH/PBS, pH 7.0) was administered as an intravenous bolus via the tail vein. At the same time, the animals were kept anesthetized, (4% isoflurane in oxygen for induction and 1.5–2.5% for maintenance). Non-invasive, whole-body microPET/CT imaging was performed using a Mediso nanoScan® PET/CT scanner (Budapest, Hungary). A previously described, image acquisition was performed. The PET/CT imaging procedure consisted of static whole-body scans per animal commencing at 60 min post-injection. The imaging protocol included the X-ray topogram (30 s) to ascertain the correct animal placement followed by CT image acquisition (4–5 min) and 20 min long PET image acquisition. Image reconstruction and analysis were performed as previously described.
(§5) After PET/CT imaging, the mice were euthanized via cervical dislocation while still under anesthesia. The different organs (spleen, pancreas, stomach, intestine, kidneys, liver, heart, lung, muscle, and femur) were collected into pre-weighed tubes. The radioactivity of each sample was determined using an automatic gamma counter (Hidex AMG, Turku, Finland). Results were expressed as a percentage of injected dose per gram organ (%ID/g). Subsequently, both muscles on the left and right thighs were fixed in 4% paraformaldehyde and submitted to the University of Pretoria, Department of Paraclinical Science, for hematoxylin and eosin (H&E) and Gram staining. Infection and inflammation tissue analysis was performed by a qualified pathologist.

E. coli [6] = type: in vivo, BALB/c mice
Description: as §2, §3, §4, §5

[7] = type: in vivo, BALB/c mice; conditions: mouse, in vivo, iv, Ex vivo organ biodistribution; remark: listed apart in the source
Description: as §2, §3, §4, §5

S. aureus [8] = type: in vivo, BALB/c mice
Description: as §2, §3, §4, §5

C[C@H](N)C(=O)N[C@H](CCC(=O)N[C@@H](CCCCNC(=O)CN1CCN(CC(=O)O)CCN(CC(=O)O)CCN(CC(=O)O)CC1)C(=O)O)C(=O)O [[^68Ga]Ga-DOTA-AeK, metal not drawn] (H-Ala-[d(γGlu)]-Lys(DOTA)-OH)
logP [1]: -1.08 | tracer recovered within the aqueous phase ([1]; octanol/water partition, n = 3): 92.3 ± 0.04% | protein-bound fraction [2]: approximately 10.18 ± 6.9% | cellular uptake, live versus heat-killed bacteria (E. coli [3]; any time point up to 120 min): No significant increase in radioactivity above the heat-killed bacterial cells | radiotracer detected in the medium (E. coli [3]; up to 120 min): ~ 98% | cellular uptake, live versus heat-killed bacteria (S. aureus [4]; any time point up to 120 min): No significant increase in radioactivity above the heat-killed bacterial cells | radiotracer detected in the medium (S. aureus [4]; up to 120 min): ~ 98% | tissue uptake at 1 h ([5]; Brain): 0.1 %ID/g | tissue uptake at 1 h ([5]; Heart): 0.8 ± 0.4 %ID/g | tissue uptake at 1 h ([5]; Inflammation): 0.9 %ID/g | tissue uptake at 1 h ([5]; Liver): 1.1 ± 0.2 %ID/g | tissue uptake at 1 h ([5]; Lungs): 1 ± 0.1 %ID/g | tissue uptake at 1 h ([5]; Muscle): 0.7 ± 0.4 %ID/g | tissue uptake at 1 h ([5]; Pancreas): 0.6 ± 0.3 %ID/g | tissue uptake at 1 h ([5]; Thyroid): 1 ± 0.7 %ID/g | uptake in the infectious foci (PET/CT and ex vivo tissue counting) (E. coli [6]; E. coli, Day 3 and Day 5 post-inoculation, 60 min after iv injection): no significant uptake in the infectious foci | clearance route (E. coli [6]; mouse, in vivo): rapid clearance mainly via renal excretion | Ex vivo organ biodistribution, Brain (E. coli [6]; mouse, in vivo, iv, 1 h): 0.2 ± 0.2 %ID/g | Ex vivo organ biodistribution, Heart (E. coli [6]; mouse, in vivo, iv, 1 h): 1.6 ± 1.3 %ID/g | Ex vivo organ biodistribution, Kidneys (E. coli [6]; mouse, in vivo, iv, 1 h): 2.9 ± 0.7 %ID/g | Ex vivo organ biodistribution, Liver (E. coli [6]; mouse, in vivo, iv, 1 h): 1.2 ± 0.4 %ID/g | Ex vivo organ biodistribution, Lungs (E. coli [6]; mouse, in vivo, iv, 1 h): 2.0 ± 0.4 %ID/g | tissue uptake at 1 h ([7]; Brain): 0.1 %ID/g | tissue uptake at 1 h ([7]; Intestines): 1.2 ± 1.9 %ID/g | tissue uptake at 1 h ([7]; Stomach): 0.7 ± 0.5 %ID/g | uptake in the infectious foci (PET/CT and ex vivo tissue counting) (S. aureus [8]; S. aureus, Day 3 and Day 5 post-inoculation, 60 min after iv injection): no significant uptake in the infectious foci | clearance route (S. aureus [8]; mouse, in vivo): rapid clearance mainly via renal excretion | Ex vivo organ biodistribution, Adipose (S. aureus [8]; mouse, in vivo, iv, 1 h): 1.9 ± 0.3 %ID/g | Ex vivo organ biodistribution, Brain (S. aureus [8]; mouse, in vivo, iv, 1 h): 0.2 ± 0.0 %ID/g | Ex vivo organ biodistribution, Femur (S. aureus [8]; mouse, in vivo, iv, 1 h): 2.0 ± 0.2 %ID/g | Ex vivo organ biodistribution, Heart (S. aureus [8]; mouse, in vivo, iv, 1 h): 3.7 ± 0.5 %ID/g | Ex vivo organ biodistribution, Infection (S. aureus [8]; mouse, in vivo, iv, 1 h): 0.9 ± 0.3 %ID/g | Ex vivo organ biodistribution, Intestines (S. aureus [8]; mouse, in vivo, iv, 1 h): 1.8 ± 0.8 %ID/g | Ex vivo organ biodistribution, Kidneys (S. aureus [8]; mouse, in vivo, iv, 1 h): 7.0 ± 0.1 %ID/g | Ex vivo organ biodistribution, Pancreas (S. aureus [8]; mouse, in vivo, iv, 1 h): 2.3 ± 0.2 %ID/g | Ex vivo organ biodistribution, Spleen (S. aureus [8]; mouse, in vivo, iv, 1 h): 1.6 ± 0.6 %ID/g | Ex vivo organ biodistribution, Stomach (S. aureus [8]; mouse, in vivo, iv, 1 h): 1.1 ± 0.4 %ID/g
